Assay results from patent US20170159101A1, “DRUG-RESISTANT P97 ATPASE MUTATIONS” (Cleave Biosciences, Inc., priority 2014, published 2017).

Key:
[1] = tested on: Hct116 resistant cell line clone #29 (p97 N660K); experiment: GI50 fold-change, resistant clone #29 vs parental; assay type: cell-based, human; settings: Clone #29, Hct116, resistance generated with compound 4, C1980A / N660K; 72 hrs
Description: (§1) Dose titration of test compounds were conducted in Hct116, DLD-1, or LoVo cell lines. In brief, cells were plated in 384-well plates and a selected candidate drug compound was added in a 10-point 2-fold serial dilution.

[2] = tested on: Hct116 resistant cell line clone #11 (p97 E470D); settings: Clone #11, Hct116, resistance generated with compound 3, G1410T / E470D; 72 hrs
[3] = tested on: Hct116 resistant cell line clone #108 (p97 P646T); experiment: GI50 fold-change, resistant clone #108 vs parental; assay type: cell-based, human; settings: Clone #108, Hct116, resistance generated with compound 4, C1936A / P646T; 72 hrs
Description: Dose titration of test compounds were conducted in Hct116, DLD-1, or LoVo cell lines. In brief, cells were plated in 384-well plates and a selected candidate drug compound was added in a 10-point 2-fold serial dilution. […] Hct116 cells were plated at 50,000 cells per 15 cm dish and treated with GI50-GI90 doses of test compound for 2-4 weeks until individual colonies of cells were visible on the plate.

[4] = tested on: DLD-1 resistant cell line clone #87 (p97 S541P); experiment: GI50 fold-change, resistant clone #87 vs parental; assay type: cell-based, human; settings: Clone #87, DLD-1, resistance generated with compound 4, T1621T/C / S541P; 72 hrs
Description: as §1

[5] = tested on: DLD-1 resistant cell line clone #82 (p97 A569A/T); experiment: GI50 fold-change, resistant clone #82 vs parental; assay type: cell-based, human; settings: Clone #82, DLD-1, resistance generated with compound 4, G1705G/A / A569A/T; 72 hrs
Description: as §1

[6] = tested on: Hct116 resistant cell line clone #137 (p97 T475I); experiment: GI50 fold-change, resistant clone #137 vs parental; assay type: cell-based, human; settings: Clone #137, Hct116, resistance generated with compound 4, C1424T / T475I; 72 hrs
Description: as §1

[7] = tested on: Hct116 resistant cell line clone #22 (p97 N660D); experiment: GI50 fold-change, resistant clone #22 vs parental; assay type: cell-based, human; settings: Clone #22, Hct116, resistance generated with compound 4, A1978G / N660D; 72 hrs
Description: as §1

[8] = tested on: Hct116 resistant cell line clone #34 (p97 E470D/E); experiment: GI50 fold-change, resistant clone #34 vs parental; assay type: cell-based, human; settings: Clone #34, Hct116, resistance generated with compound 4, G1410T/G / E470D/E; 72 hrs
Description: as §1

[9] = tested on: Hct116 resistant cell line clone #42 (p97 P472A); experiment: GI50 fold-change, resistant clone #42 vs parental; assay type: cell-based, human; settings: Clone #42, Hct116, resistance generated with compound 4, C1414G / P472A; 72 hrs
Description: as §1

[10] = tested on: Hct116 resistant cell line clone #207 (p97 V485D); experiment: GI50 fold-change, resistant clone #207 vs parental; assay type: cell-based, human; settings: Clone #207, Hct116, resistance generated with compound 4, T1454A / V485D; 72 hrs
Description: as §1

[11] = tested on: Hct116 resistant cell line clone #33 (p97 P472L); experiment: GI50 fold-change, resistant clone #33 vs parental; assay type: cell-based, human; settings: Clone #33, Hct116, resistance generated with compound 4, C1415T / P472L; 72 hrs
Description: as §1

[12] = tested on: Hct116 resistant cell line clone #45 (p97 F539I); experiment: GI50 fold-change, resistant clone #45 vs parental; assay type: cell-based, human; settings: Clone #45, Hct116, resistance generated with compound 4, T1615A / F539I; 72 hrs
Description: as §1

[13] = tested on: Hct116 resistant cell line clone #2 (p97 V474A); experiment: GI50 fold-change, resistant clone #2 vs parental; assay type: cell-based, human; settings: Clone #2, Hct116, resistance generated with compound 2, T1421C / V474A; 72 hrs
Description: as §1

[14] = tested on: DLD-1 resistant cell line clone #58 (p97 D649D/N); experiment: GI50 fold-change, resistant clone #58 vs parental; assay type: cell-based, human; settings: Clone #58, DLD-1, resistance generated with compound 4, G1945G/A / D649D/N; 72 hrs
Description: as §1

[15] = tested on: Hct116 resistant cell line clone #25 (p97 P500T); experiment: GI50 fold-change, resistant clone #25 vs parental; assay type: cell-based, human; settings: Clone #25, Hct116, resistance generated with compound 4, C1498A / P500T; 72 hrs
Description: as §1

[16] = tested on: Hct116 resistant cell line clone #6 (p97 A528T); experiment: GI50 fold-change, resistant clone #6 vs parental; assay type: cell-based, human; settings: Clone #6, Hct116, resistance generated with compound 2, G1582 / A528T; 72 hrs
Description: as §1

[17] = tested on: Hct116 resistant cell line clone #8 (p97 N660D); experiment: GI50 fold-change, resistant clone #8 vs parental; assay type: cell-based, human; settings: Clone #8, Hct116, resistance generated with compound 3, A1978G / N660D; 72 hrs
Description: as §1

[18] = tested on: Hct116 resistant cell line clone #139 (p97 P472S); experiment: GI50 fold-change, resistant clone #139 vs parental; assay type: cell-based, human; settings: Clone #139, Hct116, resistance generated with compound 4, C1414T / P472S; 72 hrs
Description: as §1

[19] = tested on: DLD-1 resistant cell line clone #83 (p97 N660N/D); experiment: GI50 fold-change, resistant clone #83 vs parental; assay type: cell-based, human; settings: Clone #83, DLD-1, resistance generated with compound 4, A1978G/A / N660N/D; 72 hrs
Description: as §1

[20] = tested on: Hct116 resistant cell line clone #1 (p97 D649N); experiment: GI50 fold-change, resistant clone #1 vs parental; assay type: cell-based, human; settings: Clone #1, Hct116, resistance generated with compound 2, G1945A / D649N; 72 hrs
Description: as §1

[21] = tested on: Hct116 resistant cell line clone #30 (p97 F516L); experiment: GI50 fold-change, resistant clone #30 vs parental; assay type: cell-based, human; settings: Clone #30, Hct116, resistance generated with compound 4, T1546C / F516L; 72 hrs
Description: as §1

[22] = tested on: Hct116 resistant cell line clone #7 (p97 A659T); settings: Clone #7, Hct116, resistance generated with compound 3, G1975A / A659T; 72 hrs
[23] = tested on: Hct116 resistant cell line clone #90 (p97 Q473P); experiment: GI50 fold-change, resistant clone #90 vs parental; assay type: cell-based, human; settings: Clone #90, Hct116, resistance generated with compound 4, A1418C / Q473P; 72 hrs
Description: as §1

| Compound | Fold Change in GI50 Compared to Parental Cell Line [1] | Fold Change in GI50 Compared to Parental Cell Line [2] | Fold Change in GI50 Compared to Parental Cell Line [3] | Fold Change in GI50 Compared to Parental Cell Line [4] | Fold Change in GI50 Compared to Parental Cell Line [5] | Fold Change in GI50 Compared to Parental Cell Line [6] | Fold Change in GI50 Compared to Parental Cell Line [7] | Fold Change in GI50 Compared to Parental Cell Line [8] | Fold Change in GI50 Compared to Parental Cell Line [9] | Fold Change in GI50 Compared to Parental Cell Line [10] | Fold Change in GI50 Compared to Parental Cell Line [11] | Fold Change in GI50 Compared to Parental Cell Line [12] | Fold Change in GI50 Compared to Parental Cell Line [13] | Fold Change in GI50 Compared to Parental Cell Line [14] | Fold Change in GI50 Compared to Parental Cell Line [15] | Fold Change in GI50 Compared to Parental Cell Line [16] | Fold Change in GI50 Compared to Parental Cell Line [17] | Fold Change in GI50 Compared to Parental Cell Line [18] | Fold Change in GI50 Compared to Parental Cell Line [19] | Fold Change in GI50 Compared to Parental Cell Line [20] | other results |
| --- | --- | --- | --- | --- | --- | --- | --- | --- | --- | --- | --- | --- | --- | --- | --- | --- | --- | --- | --- | --- | --- |
| CC(C)C[C@H](NC(=O)[C@H](Cc1ccccc1)NC(=O)c1cnccn1)B(O)O [Compound 1, [(1R)-3-methyl-1-[(2S)-3-phenyl-2-(pyrazin-2-ylformamido)propanamido]butyl]boronic acid, reference compound] | 0.9 fold | 1.0 fold | 0.9 fold | 1.1 fold | 1.5 fold | 0.8 fold | 1.0 fold | 0.8 fold | 1.0 fold | 1.0 fold | 0.9 fold | 0.8 fold | 1.0 fold | 1.3 fold | 1.3 fold | 1.1 fold | 0.8 fold | 1.0 fold | 1.2 fold | 1.0 fold | Fold Change in GI50 Compared to Parental Cell Line [21]: 0.9 fold; Fold Change in GI50 Compared to Parental Cell Line [22]: 0.9 fold; Fold Change in GI50 Compared to Parental Cell Line [23]: 1.2 fold |
| Cc1cc2c(C(N)=O)cccc2n1-c1nc2c(c(NCc3ccccc3)n1)COCC2 [Compound 4, 1-[4-(benzylamino)-5H,7H,8H-pyrano[4,3-d]pyrimidin-2-yl]-2-methyl-1H-indole-4-carboxamide] | 16.5 fold | 5.4 fold | 2.0 fold | 39.8 fold | 6.6 fold | 4.4 fold | 3.1 fold | 3.7 fold | 6.1 fold | 17.0 fold | 11.6 fold | 6.4 fold | 8.7 fold | 1.8 fold | 1.6 fold | 11.8 fold | 1.8 fold | 4.8 fold | 2.7 fold | 20.0 fold | Fold Change in GI50 Compared to Parental Cell Line [21]: 7.1 fold; Fold Change in GI50 Compared to Parental Cell Line [22]: 3.8 fold; Fold Change in GI50 Compared to Parental Cell Line [23]: 3.0 fold |
